According to DBAASP:
≈ marks a conversion by molar mass, not a printed value. Where “and” joins values, the source holds several entries; their conditions need not be identical. Equal values may be shown once.

Tests used:
Assay in all cases: ≥ marks a high value that may be exact or a test limit, other limits are often not marked, values filed in µg/mL are converted to µM
Bacillus subtilis = system: Bacillus subtilis
Escherichia coli = system: Escherichia coli
Staphylococcus aureus = system: Staphylococcus aureus
[1] = system: Escherichia coli ATCC 25922
[2] = system: Staphylococcus aureus ATCC 29213
Candida albicans = system: Candida albicans
[3] = system: Staphylococcus epidermidis ATCC 12228
[4] = system: Enterococcus faecalis ATCC 29212
[5] = system: Pseudomonas aeruginosa ATCC 27853

Compound	MIC (Escherichia coli) [µM]	MIC (Staphylococcus aureus) [µM]	MIC [1]	MIC [2]	other results
CC[C@H](C)[C@H](NC(=O)[C@H](CC(C)C)NC(=O)[C@H](C)NC(=O)[C@@H]1CCCN1C(=O)[C@H](CC(C)C)NC(=O)CN)C(=O)N[C@@H](CO)C(=O)N[C@@H](CO)C(=O)N[C@H](C(=O)N[C@@H](CCCCN)C(=O)N[C@@H](CCCN=C(N)N)C(=O)N[C@@H](CCCCN)C(=O)N[C@@H](CCCN=C(N)N)C(=O)N[C@@H](CCC(N)=O)C(=O)N[C@@H](CCC(N)=O)C(N)=O)[C@@H](C)CC [GLPALISSIKRKRQQ]	> 180	22.5 (≈ 38.2 µg/mL)			MIC (Bacillus subtilis): ≥ 45.1 µM
CC[C@H](C)[C@H](NC(=O)[C@H](CO)NC(=O)[C@H](C)NC(=O)[C@@H](NC(=O)[C@H](CCCCN)NC(=O)[C@H](CCCCN)NC(=O)[C@H](Cc1c[nH]c2ccccc12)NC(=O)[C@H](CC(N)=O)NC(=O)[C@@H](N)CCCCN)[C@@H](C)CC)C(=O)NCC(=O)N[C@@H](CCCCN)C(=O)N[C@@H](CCC(=O)O)C(=O)N[C@H](C(=O)N[C@@H](CC(C)C)C(=O)N[C@@H](CCCCN)C(=O)N[C@@H](C)C(=O)N[C@@H](CC(C)C)C(N)=O)C(C)C [KNWKKIASIGKEVLKAL]	12.5 (≈ 24.1 µg/mL)				MIC (Bacillus subtilis): ≥ 60 µM
CC(=O)N[C@@H](CC(C)C)C(=O)N[C@@H](CCCCN)C(=O)N[C@@H](CCCCN)C(=O)N[C@@H](CC(C)C)C(=O)N[C@@H](CC(C)C)C(=O)N[C@@H](CCCCN)C(=O)N[C@@H](CC(C)C)C(=O)N[C@@H](CC(C)C)C(=O)N[C@@H](CCCCN)C(=O)N[C@@H](CCCCN)C(=O)N[C@@H](CC(C)C)C(=O)N[C@@H](CC(C)C)C(=O)N[C@@H](CCCCN)C(=O)N[C@@H](CC(C)C)C(=O)N[C@@H](C)C(=O)NCC(N)=O [LKKLLKLLKKLLKLAG]			20 µM (≈ 37.2 µg/mL)	20 µM (≈ 37.2 µg/mL)	
CC[C@H](C)[C@H](NC(=O)[C@H](CC(C)C)NC(=O)[C@H](Cc1cnc[nH]1)NC(=O)[C@@H](NC(=O)[C@@H](NC(=O)[C@H](C)NC(=O)CNC(=O)[C@H](CC(C)C)NC(=O)[C@H](C)NC(=O)[C@H](C)NC(=O)[C@H](CCCCN)NC(=O)CNC(=O)[C@@H](NC(=O)CNC(=O)[C@H](CCCCN)NC(=O)[C@H](CC(C)C)NC(=O)[C@@H](NC(=O)[C@H](CC(=O)O)NC(=O)[C@H](CC(C)C)NC(=O)[C@H](Cc1ccccc1)NC(=O)CN)C(C)C)C(C)C)C(C)C)[C@@H](C)O)C(=O)N[C@@H](CC(N)=O)C(=O)N[C@@H](CCC(N)=O)C(=O)NCC(=O)N[C@@H](CCC(=O)O)C(=O)N[C@@H](CCC(N)=O)C(N)=O [GFLDVLKGVGKAALGAVTHLINQGEQ]	27.5 (≈ 72.5 µg/mL)	27.5 (≈ 72.5 µg/mL)			MIC (Candida albicans): 55.1 µM (≈ 145 µg/mL)
CC(=O)N[C@@H](CCCCN)C(=O)N[C@@H](Cc1ccc(O)cc1)C(=O)N[C@H](C(=O)NCC(=O)N[C@@H](CCCCN)C(=O)N[C@@H](CS)C(=O)N[C@H](C(=O)N[C@@H](CCCCN)C(=O)N[C@@H](CO)C(=O)N[C@@H](CCCCN)C(=O)N[C@@H](CC(N)=O)C(=O)N[C@@H](CCC(=O)O)C(=O)N[C@@H](CS)C(=O)N[C@@H](CCCCN)C(N)=O)[C@@H](C)O)[C@@H](C)O [KYTGKCTKSKNECK]					MIC (Candida albicans): 10 µM (≈ 16.6 µg/mL)
CC(C)[C@H](NC(=O)[C@H](Cc1c[nH]c2ccccc12)NC(=O)[C@H](CCCN=C(N)N)NC(=O)[C@@H](N)CCCN=C(N)N)C(=O)N[C@@H](C)C(=O)N[C@@H](Cc1c[nH]c2ccccc12)C(=O)N[C@@H](CCCN=C(N)N)C(=O)N[C@@H](CC(N)=O)C(=O)N[C@@H](CCCN=C(N)N)C(=O)O [RRWVAWRNR]			96 µM (≈ 125 µg/mL)	96 µM (≈ 125 µg/mL)	
CC[C@H](C)[C@H](NC(=O)CNC(=O)[C@H](CC(C)C)NC(=O)[C@@H](NC(=O)[C@H](Cc1ccc(O)cc1)NC(=O)[C@@H](NC(=O)[C@H](CO)NC(=O)[C@@H](NC(=O)[C@@H]1CCCN1C(=O)[C@@H](NC(=O)[C@@H](N)CO)C(C)C)[C@@H](C)O)C(C)C)[C@@H](C)O)C(=O)N[C@@H](CCCCN)C(=O)N[C@H](C(=O)N[C@@H](CC(C)C)C(=O)N[C@@H](Cc1c[nH]c2ccccc12)C(=O)N[C@@H](CO)C(=O)N[C@@H](C)C(=O)N[C@@H](Cc1ccc(O)cc1)C(=O)N[C@@H](CCCCN)C(=O)N[C@@H](Cc1cnc[nH]1)C(=O)N[C@@H](CCCN=C(N)N)C(=O)N[C@@H](CCCCN)C(=O)N[C@H](C(=O)N[C@H](C(=O)N[C@@H](CCC(=O)O)C(=O)N[C@@H](CCCCN)C(=O)N[C@@H](CO)C(=O)N[C@@H](Cc1ccccc1)C(=O)N[C@@H](CC(N)=O)C(=O)N[C@@H](CCCCN)C(=O)NCC(=O)N[C@@H](Cc1ccccc1)C(=O)N[C@@H](Cc1ccc(O)cc1)C(=O)N[C@@H](Cc1cnc[nH]1)C(=O)O)[C@@H](C)CC)[C@@H](C)O)[C@@H](C)CC [SVPTSVYTLGIKILWSAYKHRKTIEKSFNKGFYH]					MIC [3]: 50 µM (≈ 200 µg/mL)
CC[C@H](C)[C@H](NC(=O)[C@H](CC(C)C)NC(=O)[C@H](Cc1cnc[nH]1)NC(=O)[C@@H](NC(=O)[C@@H](NC(=O)[C@H](C)NC(=O)CNC(=O)[C@H](CC(C)C)NC(=O)[C@H](C)NC(=O)[C@H](C)NC(=O)[C@H](CCCCN)NC(=O)CNC(=O)[C@@H](NC(=O)CNC(=O)[C@H](CCCCN)NC(=O)[C@@H](NC(=O)[C@@H](NC(=O)[C@H](CC(=O)O)NC(=O)[C@H](CC(C)C)NC(=O)[C@H](Cc1ccccc1)NC(=O)CN)C(C)C)C(C)C)C(C)C)C(C)C)[C@@H](C)O)C(=O)N[C@@H](CC(N)=O)C(=O)N[C@@H](CCC(N)=O)C(=O)NCC(=O)N[C@@H](CCC(=O)O)C(=O)N[C@@H](CCC(N)=O)C(N)=O [GFLDVVKGVGKAALGAVTHLINQGEQ]	55.5 (≈ 145 µg/mL)	111 (≈ 291 µg/mL)			MIC (Candida albicans): 222 µM (≈ 582 µg/mL)
CC[C@H](C)[C@H](NC(=O)[C@H](CC(C)C)NC(=O)[C@H](C)NC(=O)[C@@H]1CCCN1C(=O)[C@H](CC(C)C)NC(=O)CN)C(=O)N[C@@H](CO)C(=O)N[C@@H](Cc1c[nH]c2ccccc12)C(=O)N[C@H](C(=O)N[C@@H](CCCCN)C(=O)N[C@@H](CCCN=C(N)N)C(=O)N[C@@H](CCCCN)C(=O)N[C@@H](CCCN=C(N)N)C(=O)NCC(=O)NCC(N)=O)[C@@H](C)CC [GLPALISWIKRKRGG]	47.4 (≈ 78.3 µg/mL)	1.57 (≈ 2.6 µg/mL)			MIC (Bacillus subtilis): 1.48 µM (≈ 2.45 µg/mL)
CC(=O)N[C@@H](CC(C)C)C(=O)N[C@@H](CCCCN)C(=O)N[C@@H](CCCCN)C(=O)N[C@@H](CC(C)C)C(=O)N[C@@H](CC(C)C)C(=O)N1CCC[C@H]1C(=O)N[C@@H](CC(C)C)C(=O)N[C@@H](CC(C)C)C(=O)N[C@@H](CCCCN)C(=O)N[C@@H](CCCCN)C(=O)N[C@@H](CC(C)C)C(=O)N[C@@H](CC(C)C)C(=O)N[C@@H](CCCCN)C(=O)N[C@@H](CC(C)C)C(N)=O [LKKLLPLLKKLLKL]			10 µM (≈ 17 µg/mL)	2.5 µM (≈ 4.26 µg/mL)	
CC[C@H](C)[C@H](NC(=O)CNC(=O)[C@H](CCCCN)NC(=O)[C@@H](NC(=O)[C@H](CC(C)C)NC(=O)[C@H](CO)NC(=O)CNC(=O)[C@H](CC(C)C)NC(=O)[C@H](CC(=O)O)NC(=O)[C@H](C)NC(=O)[C@H](CCCCN)NC(=O)[C@H](CC(C)C)NC(=O)[C@@H](NC(=O)[C@H](CCC(=O)O)NC(=O)[C@H](CCCCN)NC(=O)[C@H](Cc1ccccc1)NC(=O)CN)C(C)C)C(C)C)C(=O)N[C@@H](C)C(=O)N[C@@H](C)C(=O)N[C@@H](Cc1cnc[nH]1)C(=O)N[C@H](C(=O)N[C@@H](C)C(=O)N[C@@H](CC(N)=O)C(N)=O)C(C)C [GFKEVLKADLGSLVKGIAAHVAN]	214 (≈ 500 µg/mL)	214 (≈ 500 µg/mL)			MIC (Candida albicans): > 400 µM
CC(=O)N[C@@H](CC(C)C)C(=O)N[C@@H](CCCCN)C(=O)N[C@@H](CCCCN)C(=O)N[C@@H](CC(C)C)C(=O)N[C@@H](CC(C)C)C(=O)N[C@@H](CCCCN)C(=O)N1CCC[C@H]1C(=O)N[C@@H](CC(C)C)C(=O)N[C@@H](CCCCN)C(=O)N[C@@H](CCCCN)C(=O)N[C@@H](CC(C)C)C(=O)N[C@@H](CC(C)C)C(=O)N[C@@H](CCCCN)C(=O)N[C@@H](CC(C)C)C(N)=O [LKKLLKPLKKLLKL]			20 µM (≈ 34.3 µg/mL)	20 µM (≈ 34.3 µg/mL)	
CC[C@H](C)[C@H](NC(=O)[C@H](CCCCN)NC(=O)[C@H](CCCCN)NC(=O)[C@@H](NC(=O)[C@@H](NC(=O)[C@H](CCCCN)NC(=O)[C@H](Cc1ccccc1)NC(=O)[C@H](CC(C)C)NC(=O)CN)[C@@H](C)CC)[C@@H](C)CC)C(=O)N[C@@H](Cc1c[nH]c2ccccc12)C(=O)N[C@@H](CCCCN)C(=O)N[C@@H](CO)C(=O)N[C@@H](Cc1ccccc1)C(N)=O [GLFKIIKKIWKSF]			3.89 µM and 7.77 µM	1.94 µM and 3.89 µM	MIC [4]: 15.5 µM and 31.1 µM
CC[C@H](C)[C@H](NC(=O)[C@H](Cc1c[nH]c2ccccc12)NC(=O)CNC(=O)[C@H](CCCCN)NC(=O)CNC(=O)[C@H](Cc1ccccc1)NC(=O)[C@H](Cc1cnc[nH]1)NC(=O)[C@H](C)NC(=O)[C@H](C)NC(=O)[C@H](C)NC(=O)[C@H](CCCCN)NC(=O)CNC(=O)[C@H](Cc1ccccc1)NC(=O)[C@H](CCCCN)NC(=O)[C@H](C)NC(=O)[C@@H](NC(=O)CN)C(C)C)C(=O)N[C@@H](CCCCN)C(=O)N[C@@H](CCC(=O)O)C(=O)N[C@@H](CCSC)C(=O)N[C@@H](CC(C)C)C(=O)N[C@@H](CC(N)=O)C(=O)N[C@@H](CO)C(N)=O [GVAKFGKAAAHFGKGWIKEMLNS]			> 76 µM	> 76 µM	MIC [5]: > 76 µM
